# Data: patent US12214076B2, “Drug delivery vehicles for atherosclerosis nanomedicine” (Northwestern University, priority 2019, dated 2025)
# Peptide text beside a SMILES is read from it. * marks the point of attachment. Palmitoyl = CCCCCCCCCCCCCCCC(=O)*
# Experiments:
# [1] = test system: J774.2 macrophage; assay: Cytocompatibility, MUSE Count and Viability Assay (Example 2); assay type: cell-based, mouse; settings: 24 hours of treatment, 32 μM Ac2-26
# Experimental: Macrophage culture and characterization: J774.2 murine macrophages (Sigma-Aldrich) were expanded at 4-9×10^5 cells/mL in growth media consisting of Dulbecco's Modified Eagle's Medium (Sigma-Aldrich) containing 4.5 g/L glucose, 2 mM L-glutamine, 10% v/v FBS, 100 U/m penicillin, and 100 μg/mL streptomycin. Cells were passaged using Accutase™ (StemCell Technologies) and used at passage 6-9 for all experiments. The cells were detached with Accutase™ and gentle scraping, counted, and re-suspended in flow cytometry buffer containing 2% w/v bovine serum albumin (BSA, heat shock fraction free of proteases, globulin, and fatty acids, Sigma-Aldrich) and 0.1% w/v sodium azide (Sigma-Aldrich). To minimize non-specific binding of immunoglobin to Fc receptors, macrophages were incubated with anti-mouse CD16/32 antibody (TrueStain FcX™, Biolegend) at 1 μg/1×10^5 cells for 10 minutes at 4° C. […] All samples were analyzed using Attune NxT Acoustic Focusing Cytometer (Thermo Fisher) with at least 2000 events counted per condition.
# Cytocompatibility: Macrophages were seeded at 2.1×10^5 cells/cm^2 on 24 well plates and treated with 32 μM of Ac2-26 or 320 μM PA co-assemblies (final Ac2-26 concentration of 32 μM) for 24 hours. […] Cells were detached by Accutase treatment for 20 minutes and counted using a MUSE® Count and Viability Assay Kit and cytometer (Emd millipore).
# [2] = test system: inducible nitric oxide synthase (iNOS); assay: iNOS expression by flow cytometry; assay type: cell-based, mouse; settings: vs. stimulated control
# [3] = Off-target localization in internal organs, fluorescent pixel analysis; assay type: in vivo, mouse
# Experimental: Dose and concentration study: To determine the optimum concentration for targeting efficacy and safety, LDLR KO mice fed the high fat diet for 14 weeks were injected with PA nanofiber at concentrations of 1 mg/mL, 2 mg/mL, and 4 mg/mL at 8 mg/kg in PBS. Similarly, to determine the optimum dose for targeting efficacy and safety, LDLR KO mice fed the high fat diet for 14 weeks were injected at PA nanofiber doses of 8 mg/kg, 6 mg/kg, 4 mg/kg, 3.3 mg/kg, and 1.7 mg/kg at 2 mg/mL in PBS. Safety, optimum dose, and concentration for targeting was assessed by survival of the animal and fluorescent pixel quantification in the aortic root, liver, lungs, kidneys, and spleen.
# (§1) Tissue processing and imaging: Mice were sacrificed and euthanized under inhaled isoflurane anesthesia by diaphragm disruption and exsanguination. Phlebotomy was performed through direct right ventricular cardiac puncture using a 1 mL syringe and 25 G needle. Perfusion was performed through left ventricular cardiac puncture with 10 mL PBS and 10 mL 10% sucrose solution. The lungs, liver, spleen, kidney, aortic root, aortic arch, and descending aorta were harvested and stored in 10% sucrose for 20 minutes. Organs and vessels were then flash-frozen in Optimal Cutting Temperature embedding medium 4583 (Tissue-Tek®) with liquid nitrogen. Frozen specimens were stored at −80° C. and cryosectioned at […]. Confocal microscopy was performed on a Nikon AIR microscope. Two sets of images were acquired with a 10× Plan Fluor NA 0.3 objective. PAs were identified through quantification of the Alexa Fluor® 546 conjugated dye with 561 nm excitation and a 600/50 nm emission filter.
# Images were acquired with spectral detection and spectrally unmixed to accurately separate green autofluorescence from the red Alexa Fluor® 546 signal. […] Slides were stained with Oil Red O to image and quantify atherosclerosis under brightfield microscopy. […] Fluorescent pixel quantification in the aortic root and within organs was performed with ImageJ software.
# [4] = Treatment study serum chemistry (toxicology analysis); assay type: in vivo, mouse; settings: mouse, in vivo
# Experimental: Blood samples were collected at the end of the treatment study for toxicology analysis. Mice were euthanized three days after their 16th treatment.
# as §1
# Statistics: The effect of treatments and sex on atherosclerosis progression in mice was analyzed using one- or two-factor analysis of variance (ANOVA) followed by a post-hoc student's t-test. The toxicological effects of treatments were also analyzed using two-factor ANOVA and a post-hoc student's t-test. Toxicological effects of treatments on liver proteins AST, ALT, and ALP were further analyzed using ordinal logistic regression models of likelihood ratio tests, followed by a post-hoc Wald test
"detection in the lung, liver, and kidney ([3]; 1-14 days post injection)","time when red fluorescent pixels returned to non-injected control levels ([3]; all internal organs, post injection) [days]",time of detection in the spleen ([3]; post injection) [days],Compound,J774.2 macrophage viability [1],intracellular iNOS expression of stimulated macrophages [2],Creatine [4] [U/L],aspartate aminotransferase (AST) in the blood in comparison to PBS [4]
,,,"10% MMP-Ac2-26 PA: co-assembly of 10 mol % MMP-Ac2-26 PA, 50 mol % E2 filler PA, and 40% ApoA1 PA (VVAAEEGGGPQGIWGQGKAMVSEFLKQAWFIENEEQEYVQTVK)",No significant differences,no effect upon iNOS expression,,
minimal detection,10 to 14,1 to 10,CCCCCCCCCCCCCCCC(=O)N[C@H](C(=O)N[C@H](C(=O)N[C@@H](C)C(=O)N[C@@H](C)C(=O)N[C@@H](CCC(=O)O)C(=O)N[C@@H](CCC(=O)O)C(=O)NCC(=O)N[C@@H](CC(=O)O)C(=O)N[C@@H](Cc1c[nH]c2ccccc12)C(=O)N[C@@H](Cc1ccccc1)C(=O)N[C@@H](CCCCN)C(=O)N[C@@H](C)C(=O)N[C@@H](Cc1ccccc1)C(=O)N[C@@H](Cc1ccc(O)cc1)C(=O)N[C@@H](CC(=O)O)C(=O)N[C@@H](CCCCN)C(=O)N[C@H](C(=O)N[C@@H](C)C(=O)N[C@@H](CCC(=O)O)C(=O)N[C@@H](CCCCN)C(=O)N[C@@H](Cc1ccccc1)C(=O)N[C@@H](CCCCN)C(=O)N[C@@H](CCC(=O)O)C(=O)N[C@@H](C)C(=O)N[C@@H](Cc1ccccc1)C(N)=O)C(C)C)C(C)C)C(C)C [ApoA1 PA] (Palmitoyl-VVAAEEGDWFKAFYDKVAEKFKEAF-NH2),,,0,Neither ApoA1-LXR PAs nor ApoA1 PAs increased AST levels
